Consider 29 compounds from patent US10005774B2, “Syk inhibitors” (Gilead Sciences, Inc., priority 2013, dated 2018).

Usually IC50 stands for the midpoint of a concentration-inhibition curve.

The first test deals with Syk (Homo sapiens, UniProt P43405). Kind of test: High Throughput Syk Biochemical Assay (KinEASE TR-FRET). To be noted: TABLE D, 20 μM ATP, 1 μM biotinylated peptide, 0.015 nM Syk, 30 min at room temperature, read-out: IC50. Put shortly: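 Compounds in DMSO dilution series were tested against Syk, which phosphorylates an XL665-tagged peptide. The phosphoproduct was bound by Eu-labelled phosphotyrosine antibody in a two-step endpoint format.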
For orientation: TR-FRET usually uses a lanthanide donor and a delayed reading to cut background.
Regarding `C[C@@H](Oc1nc(-c2ccc3c(cnn3C)c2)cc2ncn(C)c12)[C@H]1CNC(=O)C1` [(R)-4-((R)-1-((3-methyl-6-(1-methyl-1H-indazol-5-yl)-3H-imidazo[4,5-c]pyridin-4-yl)oxy)ethyl)pyrrolidin-2-one], the IC50 is 9.62 nM.

The test is the same for the next values; noted with them: table 'ALL NEW COMPOUNDS IN 2014', 20 μM ATP, 1 μM biotinylated peptide, 0.015 nM Syk, 30 min at room temperature, read-out: Syk IC50.
Turning to `C[C@@H](Oc1nc(-c2cnc(C(C)(C)O)s2)cc2ncn(C3CC3)c12)[C@H]1CNC(=O)C1` [(R)-4-((R)-1-((3-cyclopropyl-6-(2-(2-hydroxypropan-2-yl)thiazol-5-yl)-3H-imidazo[4,5-c]pyridin-4-yl)oxy)ethyl)pyrrolidin-2-one], the IC50 came out at 7.54 nM.

`C[C@@H](Oc1nc(-c2cnc(C3CCOCC3)s2)cc2ncn(C3CC3)c12)[C@H]1CNC(=O)C1` [(R)-4-((R)-1-((3-cyclopropyl-6-(2-(tetrahydro-2H-pyran-4-yl)thiazol-5-yl)-3H-imidazo[4,5-c]pyridin-4-yl)oxy)ethyl)pyrrolidin-2-one]: the IC50 was 3.54 nM.

`C[C@@H](Oc1nc(-c2cnc(C(F)(F)F)s2)cc2ncn(C3CC3)c12)[C@H]1CNC(=O)C1` [(R)-4-((R)-1-((3-cyclopropyl-6-(2-(trifluoromethyl)thiazol-5-yl)-3H-imidazo[4,5-c]pyridin-4-yl)oxy)ethyl)pyrrolidin-2-one]: the IC50 came out at 67.7 nM.

On to `C[C@@H](Oc1nc(-c2ccc(N3CCN(C4COC4)CC3)cc2F)cc2ncn(C3CC3)c12)[C@H]1CNC(=O)C1` [(R)-4-((R)-1-((3-cyclopropyl-6-(2-fluoro-4-(4-(oxetan-3-yl)piperazin-1-yl)phenyl)-3H-imidazo[4,5-c]pyridin-4-yl)oxy)ethyl)pyrrolidin-2-one], for which the IC50 was 10.1 nM.

For `Cc1ncc(-c2cc3ncn(C4CC4)c3c(O[C@H](C)[C@H]3CNC(=O)C3)n2)s1` [(R)-4-((R)-1-((3-cyclopropyl-6-(2-methylthiazol-5-yl)-3H-imidazo[4,5-c]pyridin-4-yl)oxy)ethyl)pyrrolidin-2-one], the IC50 came to 10.2 nM.

Regarding `C[C@@H](Oc1nc(-c2cnc(N3CCOCC3)s2)cc2ncn(C3CC3)c12)[C@H]1CNC(=O)C1` [(R)-4-((R)-1-((3-cyclopropyl-6-(2-morpholinothiazol-5-yl)-3H-imidazo[4,5-c]pyridin-4-yl)oxy)ethyl)pyrrolidin-2-one], the half-inhibitory concentration (IC50) stood at 2.13 nM.

With `C[C@@H](Oc1nc(-c2ccc3c(c2)NCC3(C)C)cc2ncn(C3CC3)c12)[C@H]1CNC(=O)C1` [(R)-4-((R)-1-((3-cyclopropyl-6-(3,3-dimethylindolin-6-yl)-3H-imidazo[4,5-c]pyridin-4-yl)oxy)ethyl)pyrrolidin-2-one], the IC50 stood at 2.33 nM.

Take `CCOc1cc(-c2cc3ncn(C4CC4)c3c(O[C@H](C)[C@H]3CNC(=O)C3)n2)ccc1OC` [(R)-4-((R)-1-((3-cyclopropyl-6-(3-ethoxy-4-methoxyphenyl)-3H-imidazo[4,5-c]pyridin-4-yl)oxy)ethyl)pyrrolidin-2-one]: the IC50 was found to be 2.92 nM.

On to `C[C@@H](Oc1nc(-c2ccc(N3CCN(S(C)(=O)=O)CC3)c(F)c2)cc2ncn(C3CC3)c12)[C@H]1CNC(=O)C1` [(R)-4-((R)-1-((3-cyclopropyl-6-(3-fluoro-4-(4-(methylsulfonyl)piperazin-1-yl)phenyl)-3H-imidazo[4,5-c]pyridin-4-yl)oxy)ethyl)pyrrolidin-2-one], for which the IC50 is 2.02 nM.

With `C[C@@H](Oc1nc(-c2ccc(N3CCN(C4COC4)CC3)c(F)c2)cc2ncn(C3CC3)c12)[C@H]1CNC(=O)C1` [(R)-4-((R)-1-((3-cyclopropyl-6-(3-fluoro-4-(4-(oxetan-3-yl)piperazin-1-yl)phenyl)-3H-imidazo[4,5-c]pyridin-4-yl)oxy)ethyl)pyrrolidin-2-one], the IC50 came to 2.37 nM.

Regarding `Cc1cc(-c2cc3ncn(C4CC4)c3c(O[C@H](C)[C@H]3CNC(=O)C3)n2)ccc1N1CCN(C2COC2)CC1` [(R)-4-((R)-1-((3-cyclopropyl-6-(3-methyl-4-(4-(oxetan-3-yl)piperazin-1-yl)phenyl)-3H-imidazo[4,5-c]pyridin-4-yl)oxy)ethyl)pyrrolidin-2-one], the half-inhibitory concentration (IC50) was found to be 1.44 nM.

Turning to `Cc1cc(-c2cc3ncn(C4CC4)c3c(O[C@H](C)[C@H]3CNC(=O)C3)n2)sn1` [(R)-4-((R)-1-((3-cyclopropyl-6-(3-methylisothiazol-5-yl)-3H-imidazo[4,5-c]pyridin-4-yl)oxy)ethyl)pyrrolidin-2-one], the IC50 was found to be 2.27 nM.

For `C[C@@H](Oc1nc(-c2ccc(C3CCN(C4COC4)CC3)cc2)cc2ncn(C3CC3)c12)[C@H]1CNC(=O)C1` [(R)-4-((R)-1-((3-cyclopropyl-6-(4-(1-(oxetan-3-yl)piperidin-4-yl)phenyl)-3H-imidazo[4,5-c]pyridin-4-yl)oxy)ethyl)pyrrolidin-2-one], the half-inhibitory concentration (IC50) turned out to be 2.31 nM.

For the compound `COc1cc(-c2cc3ncn(C4CC4)c3c(O[C@H](C)[C@H]3CNC(=O)C3)n2)ccc1OCC(F)F` [(R)-4-((R)-1-((3-cyclopropyl-6-(4-(2,2-difluoroethoxy)-3-methoxyphenyl)-3H-imidazo[4,5-c]pyridin-4-yl)oxy)ethyl)pyrrolidin-2-one], the IC50 came to 2.78 nM.

For `C[C@@H](Oc1nc(-c2ccc(N3CCn4c(nnc4C(F)(F)F)C3)cc2)cc2ncn(C3CC3)c12)[C@H]1CNC(=O)C1` [(R)-4-((R)-1-((3-cyclopropyl-6-(4-(3-(trifluoromethyl)-5,6-dihydro-[1,2,4]triazolo[4,3-a]pyrazin-7(8H)-yl)phenyl)-3H-imidazo[4,5-c]pyridin-4-yl)oxy)ethyl)pyrrolidin-2-one], the IC50 came out at 2.17 nM.

Turning to `C[C@@H](Oc1nc(-c2ccc(N3CC(N4CCOCC4)C3)cc2)cc2ncn(C3CC3)c12)[C@H]1CNC(=O)C1` [(R)-4-((R)-1-((3-cyclopropyl-6-(4-(3-morpholinoazetidin-1-yl)phenyl)-3H-imidazo[4,5-c]pyridin-4-yl)oxy)ethyl)pyrrolidin-2-one], the IC50 is 5.69 nM.

Regarding `C[C@@H](Oc1nc(-c2ccc(N3CCN(S(=O)(=O)C4CC4)CC3)cc2)cc2ncn(C3CC3)c12)[C@H]1CNC(=O)C1` [(R)-4-((R)-1-((3-cyclopropyl-6-(4-(4-(cyclopropylsulfonyl)piperazin-1-yl)phenyl)-3H-imidazo[4,5-c]pyridin-4-yl)oxy)ethyl)pyrrolidin-2-one], the IC50 was found to be 1.3 nM.

`CCS(=O)(=O)N1CCN(c2ccc(-c3cc4ncn(C5CC5)c4c(O[C@H](C)[C@H]4CNC(=O)C4)n3)cc2)CC1` [(R)-4-((R)-1-((3-cyclopropyl-6-(4-(4-(ethylsulfonyl)piperazin-1-yl)phenyl)-3H-imidazo[4,5-c]pyridin-4-yl)oxy)ethyl)pyrrolidin-2-one]: the 50% inhibitory concentration (IC50) worked out at 1.05 nM.

`CC(C)S(=O)(=O)N1CCN(c2ccc(-c3cc4ncn(C5CC5)c4c(O[C@H](C)[C@H]4CNC(=O)C4)n3)cc2)CC1` [(R)-4-((R)-1-((3-cyclopropyl-6-(4-(4-(isopropylsulfonyl)piperazin-1-yl)phenyl)-3H-imidazo[4,5-c]pyridin-4-yl)oxy)ethyl)pyrrolidin-2-one]: the IC50 stood at 1.12 nM.

For the compound `C[C@@H](Oc1nc(-c2ccc(N3CCN(S(=O)(=O)C4COC4)CC3)cc2)cc2ncn(C3CC3)c12)[C@H]1CNC(=O)C1` [(R)-4-((R)-1-((3-cyclopropyl-6-(4-(4-(oxetan-3-ylsulfonyl)piperazin-1-yl)phenyl)-3H-imidazo[4,5-c]pyridin-4-yl)oxy)ethyl)pyrrolidin-2-one], the 50% inhibitory concentration (IC50) came to 1.31 nM.

On to `C[C@@H](Oc1nc(-c2ccc(N3CCn4cnnc4C3)cc2)cc2ncn(C3CC3)c12)[C@H]1CNC(=O)C1` [(R)-4-((R)-1-((3-cyclopropyl-6-(4-(5,6-dihydro-[1,2,4]triazolo[4,3-a]pyrazin-7(8H)-yl)phenyl)-3H-imidazo[4,5-c]pyridin-4-yl)oxy)ethyl)pyrrolidin-2-one], for which the half-inhibitory concentration (IC50) was determined as 1.3 nM.

Turning to `COc1cc(-c2cc3ncn(C4CC4)c3c(O[C@H](C)[C@H]3CNC(=O)C3)n2)ccc1OC(F)F` [(R)-4-((R)-1-((3-cyclopropyl-6-(4-(difluoromethoxy)-3-methoxyphenyl)-3H-imidazo[4,5-c]pyridin-4-yl)oxy)ethyl)pyrrolidin-2-one], the IC50 was determined as 5.22 nM.

As for `CCOc1ccc(-c2cc3ncn(C4CC4)c3c(O[C@H](C)[C@H]3CNC(=O)C3)n2)cc1OC` [(R)-4-((R)-1-((3-cyclopropyl-6-(4-ethoxy-3-methoxyphenyl)-3H-imidazo[4,5-c]pyridin-4-yl)oxy)ethyl)pyrrolidin-2-one], the IC50 was determined as 2.46 nM.

As for `COc1cc(-c2cc3ncn(C4CC4)c3c(O[C@H](C)[C@H]3CNC(=O)C3)n2)cnc1OC` [(R)-4-((R)-1-((3-cyclopropyl-6-(5,6-dimethoxypyridin-3-yl)-3H-imidazo[4,5-c]pyridin-4-yl)oxy)ethyl)pyrrolidin-2-one], the half-maximal inhibitory concentration (IC50) was determined as 8.38 nM.

Take `C[C@@H](Oc1nc(-c2cnc(N3CCN(C4COC4)CC3)c(F)c2)cc2ncn(C3CC3)c12)[C@H]1CNC(=O)C1` [(R)-4-((R)-1-((3-cyclopropyl-6-(5-fluoro-6-(4-(oxetan-3-yl)piperazin-1-yl)pyridin-3-yl)-3H-imidazo[4,5-c]pyridin-4-yl)oxy)ethyl)pyrrolidin-2-one]: the half-inhibitory concentration (IC50) turned out to be 17.2 nM.

On to `Cc1ccc(-c2cc3ncn(C4CC4)c3c(O[C@H](C)[C@H]3CNC(=O)C3)n2)s1` [(R)-4-((R)-1-((3-cyclopropyl-6-(5-methylthiophen-2-yl)-3H-imidazo[4,5-c]pyridin-4-yl)oxy)ethyl)pyrrolidin-2-one], for which the IC50 was determined as 7.43 nM.

Turning to `C[C@@H](Oc1nc(-c2ccc(N3CCN(C4COC4)CC3)nc2)cc2ncn(C3CC3)c12)[C@H]1CNC(=O)C1` [(R)-4-((R)-1-((3-cyclopropyl-6-(6-(4-(oxetan-3-yl)piperazin-1-yl)pyridin-3-yl)-3H-imidazo[4,5-c]pyridin-4-yl)oxy)ethyl)pyrrolidin-2-one], the 50% inhibitory concentration (IC50) turned out to be 3.63 nM.

In the case of `C[C@@H](Oc1nc(-c2ccncc2)cc2ncn(C3CC3)c12)[C@H]1CNC(=O)C1` [(R)-4-((R)-1-((3-cyclopropyl-6-(pyridin-4-yl)-3H-imidazo[4,5-c]pyridin-4-yl)oxy)ethyl)pyrrolidin-2-one], the IC50 is 11.9 nM.
